Laboratory results taken from US10590393B2, “Retinoic acid enhanced human stem cell derived blood brain barrier model” (Wisconsin Alumni Research Foundation, priority 2012, dated 2020).
Several values for one entry are separate records, joined by “and”; a condition that tells them apart may be missing. Equal values may be shown once.

Experiments:
Assay type in all cases: cell-based, human
H9-derived BMECs = assay: TEER of RA-treated H9-derived BMECs
Method: IMR90-4 and DF19-9-11T hiPSCs and H9 hESCs were maintained between passages 26-42 on […] (BD Biosciences) in mTeSR1™ medium ([…] Technologies) or on irradiated mouse embryonic fibroblasts (MEFs) in standard unconditioned medium (Dulbecco's Modified Eagle's Medium [DMEM]/Ham's F12 containing 20% Knockout Serum Replacer (Invitrogen), 1×MEM nonessential amino acids (Invitrogen), 1 mM L-glutamine (Sigma), 0.1 mM β-mercaptoethanol (Sigma), and human basic fibroblast growth factor (bFGF; 100 ng/mL for hiPSCs and 4 ng/mL for hESCs; Waisman Clinical Biomanufacturing Facility, University of Wisconsin-Madison)). Prior to differentiation, cells were passaged onto Matrigel (BD Biosciences) in mTeSR1 medium ([…] Technologies). After 2-3 days in mTeSR1, medium was switched to unconditioned medium (UM) lacking bFGF for 6 days. Human endothelial serum-free medium (hESFM; Invitrogen) supplemented with 20 ng/mL bFGF (R&D Systems) and 1% platelet-poor plasma derived bovine serum (Biomedical Technologies, Inc.) was then added for an additional 2-4 days.
All-trans RA (Sigma) was included at concentrations of 1-10 μM depending on the experiment. Equivalent DMSO was used as a vehicle control in some experiments. Cells were then dissociated with Versene (Invitrogen) and plated onto 12-well tissue culture polystyrene plates or 1.12 cm^2 Transwell-Clear® permeable inserts (0.4 μm pore size) coated with a mixture of collagen IV (400 μg/mL; Sigma) and fibronectin (100 μg/mL; Sigma). Culture plates were incubated with the coating for at least 30 min at 37° C., while the inserts were incubated for a minimum of 4 h at 37° C. hPSC-derived BMECs were then cultured in EC medium overnight (with or without RA). […] Also, our previous study used hPSCs exclusively maintained on MEFs.
FIG. 5 dictates the timing of co-culture experiments. During the subculture phase, hPSC-derived BMECs were monocultured or co-cultured with pericytes or fibroblasts in EC medium (with or without RA). After the 24 h subculture phase, hPSC-derived BMECs were maintained as a monoculture or co-cultured with differentiated hNPCs, pericytes, or fibroblasts. Depending on the experiment, co-culture was conducted in NPC differentiation medium containing 10% FBS (as opposed to the 1% FBS used during NPC differentiation) or hESFM containing 1% PDS but not bFGF (modified EC medium). Trans-endothelial electrical resistance (TEER) was measured immediately prior to co-culture using an EVOM voltohmmeter (World Precision Instruments, Sarasota, Fla., USA) and approximately every 24 h thereafter as necessary.

[1] = system: differentiating IMR90-4 hiPSCs; assay: Adherens junction and tight junction protein expression (immunocytochemistry, flow cytometry, western blot)
Method: Cells were washed twice with phosphate-buffered saline (PBS; Sigma) and fixed with either 100% ice-cold methanol for 10 min or 4% paraformaldehyde for 15 min. Cells were then washed twice with PBS and blocked in PBS containing 40% goat serum (40% PBSG; Sigma) at 20° C. for 30 min. In some instances, 0.1% Triton X-100 (TX-100) was included during this step to permeabilize the cells. Cells were then washed once with PBS and incubated with primary antibodies against occludin (1:100; Invitrogen), claudin-5 (1:100; Invitrogen), VE-cadherin (1:25; Santa Cruz Biotechnology), von Willebrand Factor (vWF; 1:100; Dako), p-glycoprotein (clone F4; 1:25; Lab Vision), breast cancer resistance protein (BCRP, clone 5D3; 1:25; Millipore), multidrug resistance protein 1 (MRP1, clone QCRL-1; 1:100; Millipore), in 40% PBSG at 4° C. overnight. Cells were washed three times with PBS and incubated with secondary antibodies (goat anti-rabbit Texas Red and goat anti-mouse Alexa Fluor 488; 1:500; Invitrogen) for 1 h at 20° C. […] For quantitative analysis of BMEC integrity, the percentage of cells expressing frayed tight junctions was counted using BMECs immunolabeled for occludin. […] A minimum of four separate frames and 1000 total cells were counted to obtain a percentage of frayed tight junctions.
Cells were washed once with PBS and dissociated with ACCUTASE for 5 min, then spun down and fixed in 2% paraformaldehyde for 15 min or 100% methanol for 10 min at 20° C. […] After another two washes with PBS containing 5% FBS, cells were analyzed on a FACSCALIBER flow cytometer and the IgG control was used to quantify positive labeling. Elevated GLUT-1 expression was quantified using a GLUT-1/forward scatter plot referenced to baseline GLUT-1 expression measured at day 4 of UM culture.
Cells were washed once with PBS and lysed with RIPA buffer (Pierce, Rockford, Ill., USA). Protein concentration was quantified via BCA assay (Pierce) and proteins were then resolved by SDS-PAGE on 4-20% Tris-Glycine gradient gels (Invitrogen). […] Protein levels were detected via a SUPERSIGNAL West Pico Chemiluminescent Substrate (Pierce).

IMR90-4-derived BMECs = assay: Analysis of tight junction fidelity (frayed tight junctions, occludin immunolabel)
Method: Cells were washed twice with phosphate-buffered saline (PBS; Sigma) and fixed with either 100% ice-cold methanol for 10 min or 4% paraformaldehyde for 15 min. Cells were then washed twice with PBS and blocked in PBS containing 40% goat serum (40% PBSG; Sigma) at 20° C. for 30 min. In some instances, 0.1% Triton X-100 (TX-100) was included during this step to permeabilize the cells. Cells were then washed once with PBS and incubated with primary antibodies against occludin (1:100; Invitrogen), claudin-5 (1:100; Invitrogen), VE-cadherin (1:25; Santa Cruz Biotechnology), von Willebrand Factor (vWF; 1:100; Dako), p-glycoprotein (clone F4; 1:25; Lab Vision), breast cancer resistance protein (BCRP, clone 5D3; 1:25; Millipore), multidrug resistance protein 1 (MRP1, clone QCRL-1; 1:100; Millipore), in 40% PBSG at 4° C. overnight. Cells were washed three times with PBS and incubated with secondary antibodies (goat anti-rabbit Texas Red and goat anti-mouse Alexa Fluor 488; 1:500; Invitrogen) for 1 h at 20° C. Cell nuclei were counterstained with 300 nM 4′,6-Diamidino-2-pheny-lindoldihydrochloride (DAPI) for 10 min. […] For quantitative analysis of BMEC integrity, the percentage of cells expressing frayed tight junctions was counted using BMECs immunolabeled for occludin. […] A minimum of four separate frames and 1000 total cells were counted to obtain a percentage of frayed tight junctions.

CC1=C(/C=C/C(C)=C/C=C/C(C)=C/C(=O)O)C(C)(C)CCC1 [RA, retinoic acid]
TEER (H9-derived BMECs; optimized RA schedule (6D UM, 1D EC, 3D EC+RA), after purification (FIG. 9c)): 1039±142 Ω×cm^2 | Maximum TEER (H9-derived BMECs; subculture: pericytes, co-culture phase: differentiated NPCs (9 days), 1% PDS): 1675±95 Ω × cm^2 and 1675 ± 95 (2) Ω × cm^2 | Average TEER (H9-derived BMECs; t = 24 h, optimized RA schedule, between biological replicates): 646±308 Ω × cm^2 | Maximum TEER (H9-derived BMECs; t = 24 h, triplicate filters): 1028 ± 153 Ω × cm^2 | decrease of the level of claudin-5 expression ([1]; RA during 2 days of EC medium treatment): 1.7 fold | increase of the level of occludin expression ([1]; RA during 2 days of EC medium treatment, across biological replicates): 1.8 to 2.9 fold | positive expression for VE-cadherin, claudin-5, and occludin ([1]; purified RA-treated BMECs): 95-98% | cells with frayed tight junctions (IMR90-4-derived BMECs; BMECs only treated with RA): 1.5±0.9% | cells with frayed tight junctions (IMR90-4-derived BMECs; RA-treated BMECs with sequential pericyte/hNPC co-culture in modified EC medium): 1.4±0.6%
